Assay results as given in US8791107B2, “N-substituted oxazinopteridines and oxazinopteridinones” (Takeda Pharmaceutical Company Limited, priority 2011, dated 2014).

Molecular target: T1, PI3Kδ (Homo sapiens, UniProt O00329)
T1 construct: The protein is full length and co-expressed with untagged PIK3R1; GST; purchased Invitrogen PV5274
Experiment: PI3Kδ inhibition, modified PIK3CD Adapta TR-FRET assay
Type: biochemical
Details: recombinant GST-tagged full length PIK3CD co-expressed with PIK3R1 (p85α); 2 μM ATP, 50 μM PIP2; read-out: PI3Kδ Inhibition (pIC50) (converted)
How it was run: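 Full-length GST-PIK3CD co-expressed with p85α was run in 50 mM HEPES pH 7.5, 3 mM MgCl2, 1 mM EGTA, 100 mM NaCl, 0.03% CHAPS, 2 mM DTT, 1% DMSO, with 12-point compound titrations. Reactions at room temperature were started with solution containing 2 μM ATP and 50 μM PIP2. ADP was detected by Adapta TR-FRET (620 nm-ratioed).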

T1 sequence (O00329 whole entry): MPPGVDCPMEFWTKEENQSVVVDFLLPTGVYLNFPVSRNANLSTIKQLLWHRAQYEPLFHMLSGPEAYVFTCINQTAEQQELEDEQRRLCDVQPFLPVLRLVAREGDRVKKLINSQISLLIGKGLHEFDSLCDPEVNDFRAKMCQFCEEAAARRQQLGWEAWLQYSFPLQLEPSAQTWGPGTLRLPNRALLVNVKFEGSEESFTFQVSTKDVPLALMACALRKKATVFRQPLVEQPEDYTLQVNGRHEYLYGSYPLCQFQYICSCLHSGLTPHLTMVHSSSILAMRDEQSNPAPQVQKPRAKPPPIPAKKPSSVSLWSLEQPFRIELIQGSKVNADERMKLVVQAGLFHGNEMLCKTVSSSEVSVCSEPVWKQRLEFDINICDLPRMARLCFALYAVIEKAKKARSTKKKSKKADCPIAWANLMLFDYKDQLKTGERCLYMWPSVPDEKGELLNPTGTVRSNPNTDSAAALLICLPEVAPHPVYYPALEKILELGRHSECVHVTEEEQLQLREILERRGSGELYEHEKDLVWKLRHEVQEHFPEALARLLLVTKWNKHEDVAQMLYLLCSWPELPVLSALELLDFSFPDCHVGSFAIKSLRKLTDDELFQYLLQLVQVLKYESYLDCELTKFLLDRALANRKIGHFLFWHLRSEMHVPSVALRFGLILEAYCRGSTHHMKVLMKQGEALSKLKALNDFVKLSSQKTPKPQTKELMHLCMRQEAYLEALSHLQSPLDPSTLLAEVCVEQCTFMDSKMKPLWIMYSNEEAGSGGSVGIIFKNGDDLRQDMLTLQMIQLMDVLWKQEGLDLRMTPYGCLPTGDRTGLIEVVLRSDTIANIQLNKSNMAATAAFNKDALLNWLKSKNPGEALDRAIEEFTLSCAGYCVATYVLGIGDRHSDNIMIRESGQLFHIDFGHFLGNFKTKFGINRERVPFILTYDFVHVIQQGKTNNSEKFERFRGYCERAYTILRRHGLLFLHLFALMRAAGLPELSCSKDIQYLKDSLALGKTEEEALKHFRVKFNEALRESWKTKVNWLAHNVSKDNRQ
T1 sequence (P27986 whole entry partner): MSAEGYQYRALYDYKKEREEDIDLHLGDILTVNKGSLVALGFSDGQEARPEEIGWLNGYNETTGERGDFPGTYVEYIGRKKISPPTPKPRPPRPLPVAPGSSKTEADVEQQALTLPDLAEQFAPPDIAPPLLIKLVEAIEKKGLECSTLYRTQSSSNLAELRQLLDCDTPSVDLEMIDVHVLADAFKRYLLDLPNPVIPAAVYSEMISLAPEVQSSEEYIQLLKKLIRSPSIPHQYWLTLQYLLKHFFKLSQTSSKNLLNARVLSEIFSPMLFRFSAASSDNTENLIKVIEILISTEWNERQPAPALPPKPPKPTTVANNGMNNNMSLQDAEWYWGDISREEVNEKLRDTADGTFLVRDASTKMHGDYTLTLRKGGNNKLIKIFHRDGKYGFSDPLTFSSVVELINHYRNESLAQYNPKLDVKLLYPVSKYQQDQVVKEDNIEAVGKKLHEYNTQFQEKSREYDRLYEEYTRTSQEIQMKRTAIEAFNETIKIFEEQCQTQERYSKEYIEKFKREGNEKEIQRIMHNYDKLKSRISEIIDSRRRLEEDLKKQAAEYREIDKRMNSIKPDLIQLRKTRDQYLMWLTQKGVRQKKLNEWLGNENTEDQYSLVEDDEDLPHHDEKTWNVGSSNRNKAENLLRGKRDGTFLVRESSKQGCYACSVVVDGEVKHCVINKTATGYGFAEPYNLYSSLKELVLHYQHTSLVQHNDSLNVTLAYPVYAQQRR

Question: Which IC50 does the source give for `CCc1nnc(CN2C[C@@H]3COCCN3c3nc(-c4cc(CO)ccc4F)ncc32)o1` [Example 179, (R)-(3-(5-((5-ethyl-1,3,4-oxadiazol-2-yl)methyl)-5,6,6a,7,9,10-hexahydro-[1,4]oxazino[3,4-h]pteridin-2-yl)-4-fluorophenyl)methanol] here?
Answer: 50.1 nM

Question: With `CCc1nnc(CN2C[C@@H]3COCCN3c3nc(-n4ccc5cnccc54)ncc32)o1` [Example 180, (R)-5-((5-ethyl-1,3,4-oxadiazol-2-yl)methyl)-2-(1H-pyrrolo[3,2-c]pyridin-1-yl)-5,6,6a,7,9,10-hexahydro-[1,4]oxazino[3,4-h]pteridine] as the molecule, how does the IC50 read?
Answer: 398 nM

Question: Which IC50 does the source give for `c1ccc(N2CC3COCCN3c3nc(-c4cccc5[nH]ccc45)ncc32)cc1` (stereo not drawn) [Example 181, 2-(1H-indol-4-yl)-5-phenyl-5,6,6a,7,9,10-hexahydro-[1,4]oxazino[3,4-h]pteridine] here?
Answer: 79.4 nM

Question: With `Cn1cc(CN2C[C@@H]3COCCN3c3nc(-c4cccc5[nH]ccc45)ncc32)cn1` [Example 182, (R)-2-(1H-indol-4-yl)-5-((1-methyl-1H-pyrazol-4-yl)methyl)-5,6,6a,7,9,10-hexahydro-[1,4]oxazino[3,4-h]pteridine] as the molecule, how does the IC50 read?
Answer: 15.8 nM

Question: How did the IC50 turn out when `CCc1cccc(N2C[C@@H]3COCCN3c3nc(-c4cccc5[nH]ccc45)ncc32)c1` [Example 183, (R)-5-(3-ethylphenyl)-2-(1H-indol-4-yl)-5,6,6a,7,9,10-hexahydro-[1,4]oxazino[3,4-h]pteridine] was run?
Answer: 398 nM

Question: Which IC50 does the source give for `CCc1ccccc1N1C[C@@H]2COCCN2c2nc(-c3cccc4[nH]ccc34)ncc21` [Example 184, (R)-5-(2-ethyl-phenyl)-2-(1H-indol-4-yl)-5,6,6a,7,9,10-hexahydro-[1,4]oxazino[3,4-h]pteridine] here?
Answer: 398 nM

Question: With `c1cc(-c2ncc3c(n2)N2CCOC[C@H]2CN3Cc2cnco2)c2cc[nH]c2c1` [Example 185, (R)-2-(1H-indol-4-yl)-5-(oxazol-5-ylmethyl)-5,6,6a,7,9,10-hexahydro-[1,4]oxazino[3,4-h]pteridine] as the molecule, how does the IC50 read?
Answer: 10 nM

Question: For `N#Cc1ccccc1N1C[C@@H]2COCCN2c2nc(-c3cccc4[nH]ccc34)ncc21` [Example 186, (R)-2-(2-(1H-indol-4-yl)-6a,7,9,10-tetrahydro-[1,4]oxazino[3,4-h]pteridin-5(6H)-yl)benzonitrile], which IC50 is on record?
Answer: 50.1 nM

Question: Which IC50 does the source give for `Cc1ccccc1N1C[C@@H]2COCCN2c2nc(-c3cccc4[nH]ccc34)ncc21` [Example 187, (R)-2-(1H-indol-4-yl)-5-(o-tolyl)-5,6,6a,7,9,10-hexahydro-[1,4]oxazino[3,4-h]pteridine] here?
Answer: 126 nM

Question: How did the IC50 turn out when `CCc1cc(CN2C[C@@H]3COCCN3c3nc(-c4cccc5[nH]ccc45)ncc32)on1` [Example 188, (R)-5-((3-ethylisoxazol-5-yl)methyl)-2-(1H-indol-4-yl)-5,6,6a,7,9,10-hexahydro-[1,4]oxazino[3,4-h]pteridine] was run?
Answer: 39.8 nM

Question: Which IC50 does the source give for `OC1CCC(N2C[C@@H]3COCCN3c3nc(-c4cccc5[nH]ccc45)ncc32)CC1` (stereo partly drawn) [Example 189, (R)-4-(2-(1H-indol-4-yl)-6a,7,9,10-tetrahydro-[1,4]oxazino[3,4-h]pteridin-5(6H)-yl)cyclohexanol] here?
Answer: 7.94 nM

Question: For `CCOC(=O)c1cccc(N2C[C@@H]3COCCN3c3nc(-c4cccc5[nH]ccc45)ncc32)c1` [Example 190, (R)-ethyl 3-(2-(1H-indol-4-yl)-6a,7,9,10-tetrahydro-[1,4]oxazino[3,4-h]pteridin-5(6H)-yl)benzoate], which IC50 is on record?
Answer: 25.1 nM

Question: How did the IC50 turn out when `CS(=O)(=O)c1cccc(N2C[C@@H]3COCCN3c3nc(-c4cccc5[nH]ccc45)ncc32)c1` [Example 191, (R)-2-(1H-indol-4-yl)-5-(3-(methylsulfonyl)phenyl)-5,6,6a,7,9,10-hexahydro-[1,4]oxazino[3,4-h]pteridine] was run?
Answer: 3.16 nM

Question: Which IC50 does the source give for `c1cc(-c2ncc3c(n2)N2CCOC[C@H]2CN3C2CCOCC2)c2cc[nH]c2c1` [Example 192, (R)-2-(1H-indol-4-yl)-5-(tetrahydro-2H-pyran-4-yl)-5,6,6a,7,9,10-hexahydro-[1,4]oxazino[3,4-h]pteridine] here?
Answer: 3.16 nM

Question: With `c1cc(-c2ncc3c(n2)N2CCOC[C@H]2CN3c2cccc3[nH]ccc23)c2cc[nH]c2c1` [Example 193, (R)-2,5-di(1H-indol-4-yl)-5,6,6a,7,9,10-hexahydro-[1,4]oxazino[3,4-h]pteridine] as the molecule, how does the IC50 read?
Answer: 794 nM

Question: How did the IC50 turn out when `c1cc(-c2ncc3c(n2)N2CCOC[C@H]2CN3CCC2OCCO2)c2cc[nH]c2c1` [Example 194, (R)-5-(2-(1,3-dioxolan-2-yl)ethyl)-2-(1H-indol-4-yl)-5,6,6a,7,9,10-hexahydro-[1,4]oxazino[3,4-h]pteridine] was run?
Answer: 3.16 nM

Question: How did the IC50 turn out when `COC(=O)CCCN1C[C@@H]2COCCN2c2nc(-c3cccc4[nH]ccc34)ncc21` [Example 195, (R)-methyl 4-(2-(1H-indol-4-yl)-6a,7,9,10-tetrahydro-[1,4]oxazino[3,4-h]pteridin-5(6H)-yl)butanoate] was run?
Answer: 3.16 nM

Question: Which IC50 does the source give for `O=C(O)CCCN1C[C@@H]2COCCN2c2nc(-c3cccc4[nH]ccc34)ncc21` [Example 196, (R)-4-(2-(1H-indol-4-yl)-6a,7,9,10-tetrahydro-[1,4]oxazino[3,4-h]pteridin-5(6H)-yl)butanoic acid] here?
Answer: 6.31 nM

Question: With `N[C@H]1CC[C@H](CN2C[C@@H]3COCCN3c3nc(-c4cccc5[nH]ccc45)ncc32)CC1` [Example 197] as the molecule, how does the IC50 read?
Answer: 3160 nM

Question: Which IC50 does the source give for `CCOC(=O)c1cncc(N2C[C@@H]3COCCN3c3nc(-c4cccc5[nH]ccc45)ncc32)c1` [Example 198, (R)-ethyl 5-(2-(1H-indol-4-yl)-6a,7,9,10-tetrahydro-[1,4]oxazino[3,4-h]pteridin-5(6H)-yl)nicotinate] here?
Answer: 15.8 nM

Question: For `COC(=O)c1cncc(N2C[C@@H]3COCCN3c3nc(-c4cccc5[nH]ccc45)ncc32)c1` [Example 199, (R)-methyl 5-(2-(1H-indol-4-yl)-6a,7,9,10-tetrahydro-[1,4]oxazino[3,4-h]pteridin-5(6H)-yl)nicotinate], which IC50 is on record?
Answer: 1000 nM

Question: `COc1cncc(N2C[C@@H]3COCCN3c3nc(-c4cccc5[nH]ccc45)ncc32)c1` [Example 201, (R)-2-(1H-indol-4-yl)-5-(5-methoxypyridin-3-yl)-5,6,6a,7,9,10-hexahydro-[1,4]oxazino[3,4-h]pteridine] was tested. Which IC50 did it give?
Answer: 12.6 nM

Question: `COC(=O)c1cc(N2C[C@@H]3COCCN3c3nc(-c4cccc5[nH]ccc45)ncc32)cnc1OC` [Example 202, (R)-methyl 5-(2-(1H-indol-4-yl)-6a,7,9,10-tetrahydro-[1,4]oxazino[3,4-h]pteridin-5(6H)-yl)-2-methoxynicotinate] was tested. Which IC50 did it give?
Answer: 2.51 nM

Question: Which IC50 does the source give for `O=C(CN1C[C@@H]2COCCN2c2nc(-c3cccc4[nH]ccc34)ncc21)Nc1ccncc1` [Example 203, (R)-2-(2-(1H-indol-4-yl)-6a,7,9,10-tetrahydro-[1,4]oxazino[3,4-h]pteridin-5(6H)-yl)-N-(pyridin-4-yl)acetamide] here?
Answer: 398 nM

Question: Which IC50 does the source give for `COCCNC(=O)CN1C[C@@H]2COCCN2c2nc(-c3cccc4[nH]ccc34)ncc21` [Example 204, (R)-2-(2-(1H-indol-4-yl)-6a,7,9,10-tetrahydro-[1,4]oxazino[3,4-h]pteridin-5(6H)-yl)-N-(2-methoxyethyl)acetamide] here?
Answer: 158 nM

Question: With `O=C(CN1C[C@@H]2COCCN2c2nc(-c3cccc4[nH]ccc34)ncc21)NC1CCOCC1` [Example 205, (R)-2-(2-(1H-indol-4-yl)-6a,7,9,10-tetrahydro-[1,4]oxazino[3,4-h]pteridin-5(6H)-yl)-N-(tetrahydro-2H-pyran-4-yl)acetamide] as the molecule, how does the IC50 read?
Answer: 200 nM

Question: How did the IC50 turn out when `Cn1cc(NC(=O)CN2C[C@@H]3COCCN3c3nc(-c4cccc5[nH]ccc45)ncc32)cn1` [Example 206, (R)-2-(2-(1H-indol-4-yl)-6a,7,9,10-tetrahydro-[1,4]oxazino[3,4-h]pteridin-5(6H)-yl)-N-(1-methyl-1H-pyrazol-4-yl)acetamide] was run?
Answer: 50.1 nM

Question: `O=C(CN1C[C@@H]2COCCN2c2nc(-c3cccc4[nH]ccc34)ncc21)NC1CC1` [Example 207, (R)-2-(2-(1H-indol-4-yl)-6a,7,9,10-tetrahydro-[1,4]oxazino[3,4-h]pteridin-5(6H)-yl)-N-cyclopropylacetamide] was tested. Which IC50 did it give?
Answer: 251 nM

Question: `CC(C)(C#N)NC(=O)CN1C[C@@H]2COCCN2c2nc(-c3cccc4[nH]ccc34)ncc21` [Example 208, (R)-2-(2-(1H-indol-4-yl)-6a,7,9,10-tetrahydro-[1,4]oxazino[3,4-h]pteridin-5(6H)-yl)-N-(2-cyanopropan-2-yl)acetamide] was tested. Which IC50 did it give?
Answer: 398 nM

Question: `CC(C)(C)C(N)CCN1C[C@@H]2COCCN2c2nc(-c3cccc4[nH]ccc34)ncc21` (stereo partly drawn) [Example 210, 1-((R)-2-(1H-indol-4-yl)-6a,7,9,10-tetrahydro-[1,4]oxazino[3,4-h]pteridin-5(6H)-yl)-4,4-dimethylpentan-3-amine] was tested. Which IC50 did it give?
Answer: > 10000 nM

Question: With `O=C(CN1C[C@@H]2COCCN2c2nc(-n3c(C(F)F)nc4ccccc43)ncc21)NCC1CCOCC1` [Example 211, (R)-2-(2-(2-(difluoromethyl)-1H-benzo[d]imidazol-1-yl)-6a,7,9,10-tetrahydro-[1,4]oxazino[3,4-h]pteridin-5(6H)-yl)-N-((tetrahydro-2H-pyran-4-yl)methyl)acetamide] as the molecule, how does the IC50 read?
Answer: 20 nM

Question: `CN(CC1CCOCC1)C(=O)CN1C[C@@H]2COCCN2c2nc(-c3cccc4[nH]ccc34)ncc21` [Example 212, (R)-2-(2-(1H-indol-4-yl)-6a,7,9,10-tetrahydro-[1,4]oxazino[3,4-h]pteridin-5(6H)-yl)-N-methyl-N-((tetrahydro-2H-pyran-4-yl)methyl)acetamide] was tested. Which IC50 did it give?
Answer: 39.8 nM

Question: How did the IC50 turn out when `O=C(CN1C[C@@H]2COCCN2c2nc(-c3ccc(CO)cc3)ncc21)NCC1CCOCC1` [Example 214, (R)-2-(2-(4-(hydroxymethyl)phenyl)-6a,7,9,10-tetrahydro-[1,4]oxazino[3,4-h]pteridin-5(6H)-yl)-N-((tetrahydro-2H-pyran-4-yl)methyl)acetamide] was run?
Answer: 2000 nM
